Data as given in patent US10800789B2, “Antiviral compounds” (Gilead Pharmasset LLC, priority 2012, dated 2020).
Like-named read-outs stand apart in the source and are kept apart here.

Legend:
[1] = system: stable HCV 1b RLuc replicon cells (dicistronic genotype 1b Con1 replicon); test: Renilla luciferase HCV replicon reporter assay, genotype 1b; type: cell-based; details: Hepatitis C virus, 72 h, stable 1b Con1 RLuc replicon cells, 72 hours; read-out: 1b
Description: (§1) Evaluation of Cell-Based Anti-HCV Activity:
(§2) Antiviral potency (EC50) was determined using a Renilla luciferase (RLuc)-based HCV replicon reporter assay. To perform the assay for genotype 1 and 2a JFH-1, stable HCV 1a RLuc replicon cells (harboring a dicistronic genotype 1a H77 replicon that encodes a RLuc reporter), stable HCV 1b RLuc replicon cells (harboring a dicistronic genotype 1b Con1 replicon that encodes a RLuc reporter), or stable HCV 2a JFH-1 Rluc replicon cells (harboring a dicistronic genotype 2a JFH-1 replicon that encodes a RLuc reporter; with L31 present in NS5A) were dispensed into 384-well plates for EC50 assays. To perform the assay for genotype 2a (with M31 present in NS5A) or 2b, NS5A chimeric genotype 2a JFH-1 replicons that encodes a RLuc-Neo reporter and either genotype 2a J6 strain NS5A gene or genotype 2b MD2b-1 strain NS5A gene (both with M31 present) respectively, were either transiently transfected (t) into Huh-Lunet cells or were established as stably replicating replicon cells (s) is provided. Either cells were dispensed into 384-well plates for EC50 assays. To perform the assay for genotype 3 and 4, NS5A chimeric genotype 1b Con1 replicons that encodes a Pi-RLuc reporter and either genotype 3a S52 strain NS5A gene or genotype 4a ED43 strain NS5A gene respectively, were transiently transfected (t) into Huh-Lunet cells, which were subsequently dispensed into 384-well plates. Compounds were dissolved in DMSO at a concentration of 10 mM and diluted in DMSO either manually or using an automated pipeting instrument. Serially 3-fold diluted compounds were either manually mixed with cell culture media and added to the seeded cells or directly added to the cells using an automated instrument. DMSO was used as a negative (solvent; no inhibition) control, and the protease inhibitor ITMN-191 was included at a concentration>100×EC50 as a positive control. 72 hours later, cells were lysed and Renilla luciferase activity quantified as recommended by the manufacturer (Promega-Madison, Wis.). Non-linear regression was performed to calculate EC50 values.

[2] = system: stable HCV 1a RLuc replicon cells (dicistronic genotype 1a H77 replicon); test: Renilla luciferase HCV replicon reporter assay, genotype 1a; type: cell-based; details: Hepatitis C virus, 72 h, stable 1a H77 RLuc replicon cells
Description: as §1, §2

[3] = system: stable HCV 2a JFH-1 Rluc replicon cells (L31 present in NS5A); test: Renilla luciferase HCV replicon reporter assay, genotype 2a JFH-1; type: cell-based; details: Hepatitis C virus
Description: as §1, §2

[4] = system: NS5A chimeric genotype 2a JFH-1 replicon with genotype 2b MD2b-1 strain NS5A gene (M31 present); test: Replicon assay, genotype 2b NS5A chimera; type: cell-based, HCV; details: Hepatitis C virus
Description: as §1, §2

[5] = system: NS5A chimeric genotype 1b Con1 replicon with genotype 3a S52 strain NS5A gene; test: Replicon assay, genotype 3a NS5A chimera; type: cell-based, HCV; details: Hepatitis C virus
[6] = system: NS5A chimeric genotype 1b Con1 replicon with genotype 4a ED43 strain NS5A gene; test: Replicon assay, genotype 4a NS5A chimera; type: cell-based, HCV; details: Hepatitis C virus
[7] = system: NS5A chimeric genotype 2a JFH-1 replicon with genotype 2a J6 strain NS5A gene (M31 present); test: Replicon assay, genotype 2a J6 NS5A chimera; type: cell-based, HCV; details: Hepatitis C virus, read-out: 2a J6 (t) (nM), genotype 2a J6 NS5A chimeric replicon (M31), transiently transfected (t) into Huh-Lunet cells
Description: as §1, §2

[8] = read-out: 2a JFH (nM), genotype 2a JFH-1 replicon (L31 in NS5A), stable cells
[9] = read-out: 2a JFH, stable 2a JFH-1 Rluc replicon cells, L31 in NS5A, activity range
[10] = 2BS, read-out: 2b (s), stably replicating replicon cells (s), activity range
[11] = read-out: 2b (s) (nM), genotype 2b MD2b-1 NS5A chimeric replicon (M31), stably replicating replicon cells (s)
[12] = read-out: 3a (s) (nM), genotype 3a NS5A chimeric replicon, stable replicon cells (s)
[13] = read-out: 3a (s), (s), activity range
[14] = read-out: 4a (s) (nM), genotype 4a NS5A chimeric replicon, stable replicon cells (s)
[15] = read-out: 4a (s), (s), activity range

**Q.** Which EC50 [1] does the source give for `CC[C@H]1CC[C@@H](c2ncc(-c3ccc4c(c3)COc3cc5c(ccc6nc([C@@H]7CC[C@H](C)N7C(=O)[C@@H](NC(=O)OC)[C@@H](C)OC)[nH]c65)cc3-4)[nH]2)N1C(=O)[C@@H](NC(=O)OC)C(C)C` [EQ, methyl{(2S,3R)-1-[(2S,5S)-2-(9-{2-[(2S,5S)-5-ethyl-1-{(2S)-2-[(methoxycarbonyl)amino]-3-methylbutanoyl}pyrrolidin-2-yl]-1H-imidazol-5-yl}-1,11-dihydroisochromeno[4′,3′:6,7]naphtho[1,2-d]imidazol-2-yl)-5-methylpyrrolidin-1-yl]-3-methoxy-1-oxobutan-2-yl}carbamate] here?
**A.** 0.036 nM

**Q.** And the EC50 [2]?
**A.** 0.034 nM

**Q.** And the EC50 ([2]; activity range)?
**A.** < 0.1 nM

**Q.** And the EC50 [3, 8]?
**A.** 0.022 nM

**Q.** And the EC50 [3, 9]?
**A.** < 0.1 nM

**Q.** And the EC50 [4, 10]?
**A.** 0.1 to 0.999 nM

**Q.** What about the EC50 [4, 11] of the same compound?
**A.** 0.279 nM

**Q.** And the EC50 [5, 12]?
**A.** 0.475 nM

**Q.** What about the EC50 [5, 13] of the same compound?
**A.** 0.1 to 0.999 nM

**Q.** What about the EC50 [6, 14] of the same compound?
**A.** 0.025 nM

**Q.** And the EC50 [6, 15]?
**A.** < 0.1 nM

**Q.** `CC[C@H]1CC[C@@H](c2ncc(-c3ccc4c(c3)COc3cc5c(ccc6nc([C@@H]7C[C@H](COC)CN7C(=O)[C@@H](NC(=O)OC)C(C)C)[nH]c65)cc3-4)[nH]2)N1C(=O)[C@@H](NC(=O)OC)C(C)C` [ER, Methyl {(2S)-1-[(2S,4S)-2-(9-{2-[(2S,5S)-5-ethyl-1-{(2S)-2-[(methoxycarbonyl)amino]-3-methylbutanoyl}pyrrolidin-2-yl]-1H-imidazol-5-yl}-1,11-dihydroisochromeno[4′,3′:6,7]naphtho[1,2-d]imidazol-2-yl)-4-(methoxymethyl)pyrrolidin-1-yl]-3-methyl-1-oxobutan-2-yl}carbamate] was tested. Which EC50 [1] did it give?
**A.** 0.02 nM

**Q.** What about the EC50 [2] of the same compound?
**A.** 0.016 nM

**Q.** What about the EC50 ([2]; activity range) of the same compound?
**A.** < 0.1 nM

**Q.** What about the EC50 [3, 8] of the same compound?
**A.** 0.021 nM

**Q.** And the EC50 [3, 9]?
**A.** < 0.1 nM

**Q.** What about the EC50 [4, 10] of the same compound?
**A.** 0.1 to 0.999 nM

**Q.** And the EC50 [4, 11]?
**A.** 0.852 nM

**Q.** What about the EC50 [5, 12] of the same compound?
**A.** 2.8 nM

**Q.** What about the EC50 [5, 13] of the same compound?
**A.** 1 to 44 nM

**Q.** What about the EC50 [6, 14] of the same compound?
**A.** 0.011 nM

**Q.** And the EC50 [6, 15]?
**A.** < 0.1 nM

**Q.** With `COC(=O)N[C@H](C(=O)N1C[C@@H](C)C[C@H]1c1nc2ccc3cc4c(cc3c2[nH]1)OCc1cc(-c2cnc([C@@H]3CC[C@H](C)N3C(=O)[C@@H](NC(=O)OC)C3CCOCC3)[nH]2)ccc1-4)C(C)C` [FP, Methyl [(2S)-1-{(2S,4S)-2-[9-(2-{(2S,5S)-1-[(2S)-2-[(methoxycarbonyl)amino]-2-(tetrahydro-2H-pyran-4-yl)acetyl]-5-methylpyrrolidin-2-yl}-1H-imidazol-5-yl)-1,11-dihydroisochromeno[4′,3′:6,7]naphtho[1,2-d]imidazol-2-yl]-4-methylpyrrolidin-1-yl}-3-methyl-1-oxobutan-2-yl]carbamate] as the compound, how does the EC50 [1] read?
**A.** 0.024 nM

**Q.** And the EC50 [2]?
**A.** 0.016 nM

**Q.** And the EC50 ([2]; activity range)?
**A.** < 0.1 nM

**Q.** And the EC50 [3, 8]?
**A.** 0.016 nM

**Q.** And the EC50 [3, 9]?
**A.** < 0.1 nM

**Q.** What about the EC50 [4, 10] of the same compound?
**A.** < 0.1 nM

**Q.** And the EC50 [4, 11]?
**A.** 0.085 nM

**Q.** And the EC50 [5, 12]?
**A.** 0.052 nM

**Q.** What about the EC50 [5, 13] of the same compound?
**A.** < 0.1 nM

**Q.** What about the EC50 [6, 14] of the same compound?
**A.** 0.017 nM

**Q.** What about the EC50 [6, 15] of the same compound?
**A.** < 0.1 nM

**Q.** Which EC50 [1] does the source give for `COC(=O)N[C@H](C(=O)N1C[C@@H](C)C[C@H]1c1ncc(-c2ccc3c(c2)COc2cc4c(ccc5nc([C@@H]6CC[C@H](C)N6C(=O)[C@@H](NC(=O)OC)[C@@H](C)OC)[nH]c54)cc2-3)[nH]1)C(C)C` [GH, Methyl {(2S)-1-[(2S,4S)-2-(5-{2-[(2S,5S)-1-{(2S,3R)-3-methoxy-2-[(methoxycarbonyl)amino]butanoyl}-5-methylpyrrolidin-2-yl]-1,11-dihydroisochromeno[4′,3′:6,7]naphtho[1,2-d]imidazol-9-yl}-1H-imidazol-2-yl)-4-methylpyrrolidin-1-yl]-3-methyl-1-oxobutan-2-yl}carbamate] here?
**A.** 0.027 nM

**Q.** What about the EC50 [2] of the same compound?
**A.** 0.02 nM

**Q.** And the EC50 ([2]; activity range)?
**A.** < 0.1 nM

**Q.** And the EC50 [3, 8]?
**A.** 0.011 nM

**Q.** What about the EC50 [3, 9] of the same compound?
**A.** < 0.1 nM

**Q.** What about the EC50 [4, 10] of the same compound?
**A.** 0.1 to 0.999 nM

**Q.** What about the EC50 [4, 11] of the same compound?
**A.** 0.247 nM

**Q.** And the EC50 [5, 12]?
**A.** 0.07 nM

**Q.** And the EC50 [5, 13]?
**A.** < 0.1 nM

**Q.** `CC[C@H](C)[C@H](NC(=O)OC)C(=O)N1CCC[C@H]1c1ncc(-c2ccc3c(c2)COc2cc4c(ccc5nc([C@@H]6CCCN6C(=O)[C@@H](NC(=O)OC)[C@@H](C)CC)[nH]c54)cc2-3)[nH]1` [HH] was tested. Which EC50 [3, 8] did it give?
**A.** 0.012 nM

**Q.** And the EC50 [7]?
**A.** 3 nM

**Q.** What about the EC50 [4, 11] of the same compound?
**A.** 2.25 nM

**Q.** What about the EC50 [5, 12] of the same compound?
**A.** 0.06 nM

**Q.** What about the EC50 [6, 14] of the same compound?
**A.** 0.011 nM
